Key:
TRPMLs = conditions: background statement; cited from earlier work
human TRPML1 = human TRPML1 (Homo sapiens, UniProt Q9GZU1); assay: Fluorescent TRPML1 assay (Fluo4-AM calcium fluorescence); type: cell-based; conditions: HEK-293 Trex cells expressing hTRPML1, Fluo4-AM fluorescence; read-out: Human TRPML 1 EC50
Experimental: (§1) HEK-293 Trex cells were stably transfected with a construct consisting of the human coding sequence for TRPML1 cloned into the tet-inducible plasmid pCDNA5 T/O. Mutations were introduced into the TRPML1 sequence to facilitate expression on the cell surface (Silvia Vergarajauregui, Rosa Puertollano Traffic. 2006 March; 7(3): 337-353). Briefly, the cells are cultured in 150 mm round tissue culture dishes containing 20 mL of media. The day before the assay the cells are rinsed with DPBS-Ca-Mg and then treated briefly with Trypsin-EDTA. The Trypsin-EDTA is diluted with growth media, and cells are counted. 38×10^6 cells are re-plated into 150 mm round tissue culture dishes in media containing 0.5 ug/mL doxycycline to induce expression of hTRPML1.
(§2) The day of the experiment cells are lifted from the plates as above and collected by centrifugation. The cells are then suspended in dye loading buffer consisting of Ringer's solution supplemented with 0.1% Pluronic Acid and 1 micromolar Fluo4-AM dye. Cells are loaded for ~60 minutes in the dark with occasional mixing. The cells are collected by centrifugation, the loading media aspirated, and the cells resuspended in 25 mL Ringer's solution and incubated ~60 minutes in the dark. The cells are again collected by centrifugation, rinsed in Ringer's Solution and resuspended to 0.2×10^6 cells/mL in modified Ringer's solution containing 10 mM calcium.
(§3) Compounds are dissolved to a concentration of 10 millimolar with DMSO. Compound plates are created by dispensing compounds into 384 well black wall clear bottom plates (Greiner 781091). Positive and negative controls are included on each plate. Typically, different amounts of each compound are tested ranging from 100 nanoMoles (20 micromolar final concentration) decreasing in half-log steps to 31 picoMoles (6 nanomolar final concentration). Each concentration is typically tested in triplicate.
(§4) 50 microliters of dye-loaded cells are dispensed into each well of the compound assay plate created above. The fluorescence in each well is then determined with an excitation wavelength of 480 nm and an emission wavelength of 540 nm using either a Molecular Devices SpectraMax multimode plate reader or a Hamamatsu FDSS/uCell plate imager.
(§5) The resulting fluorescence for each well is exported as an ascii file and loaded into our LIMS for analysis. The percent activity of each compound at each concentration is determined by comparison to the positive and negative control wells included in each plate.
(§6) EC50 values were calculated using a non-linear regression of Prism. In the table, “A” indicates an EC50 of less than 100 nM, “B” indicates an EC50 range from 100 nM to 500 nM; “C” indicates an EC50 range from 500 nM to 2 μM; and “D” indicates an EC50 greater than 2 μM.

Human TRPML2 = molecular target: T1, Human TRPML2 (Homo sapiens, UniProt Q8IZK6); assay: Fluorescent TRPML2 assay (as for TRPML1); type: cell-based; conditions: as TRPML1 assay with TRPML2 subtype; read-out: Human TRPML 2 EC50
T1 construct: expressed in transfected cells
T1 sequence (Q8IZK6 1-566): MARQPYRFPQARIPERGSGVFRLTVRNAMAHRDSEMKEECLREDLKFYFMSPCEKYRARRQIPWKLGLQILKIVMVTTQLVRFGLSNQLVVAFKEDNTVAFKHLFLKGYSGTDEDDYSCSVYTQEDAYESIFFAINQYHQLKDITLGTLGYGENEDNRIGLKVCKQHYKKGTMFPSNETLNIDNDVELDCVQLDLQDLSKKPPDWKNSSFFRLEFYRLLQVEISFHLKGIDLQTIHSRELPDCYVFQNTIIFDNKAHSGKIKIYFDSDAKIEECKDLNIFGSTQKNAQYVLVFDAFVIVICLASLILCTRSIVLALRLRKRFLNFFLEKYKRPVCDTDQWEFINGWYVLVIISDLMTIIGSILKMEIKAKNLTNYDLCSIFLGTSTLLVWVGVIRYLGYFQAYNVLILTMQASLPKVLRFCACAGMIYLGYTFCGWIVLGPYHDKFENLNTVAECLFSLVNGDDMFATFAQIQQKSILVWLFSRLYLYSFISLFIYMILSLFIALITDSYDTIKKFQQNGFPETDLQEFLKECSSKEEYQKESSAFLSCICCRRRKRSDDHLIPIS
Experimental: as §1, §2, §3, §4, §5
(§7) Assays for TRPML2 and TRPML3 were performed as above for TRPML1, by substituting the appropriate TRPML2 or TRPML3 subtype for the TRPML1.
as §6

Human TRPML3 = molecular target: T2, Human TRPML3 (Homo sapiens, UniProt Q8TDD5); assay: Fluorescent TRPML3 assay (as for TRPML1); type: cell-based; conditions: as TRPML1 assay with TRPML3 subtype; read-out: Human TRPML 3 EC50
T2 construct: expressed in transfected cells
T2 sequence (Q8TDD5 1-553): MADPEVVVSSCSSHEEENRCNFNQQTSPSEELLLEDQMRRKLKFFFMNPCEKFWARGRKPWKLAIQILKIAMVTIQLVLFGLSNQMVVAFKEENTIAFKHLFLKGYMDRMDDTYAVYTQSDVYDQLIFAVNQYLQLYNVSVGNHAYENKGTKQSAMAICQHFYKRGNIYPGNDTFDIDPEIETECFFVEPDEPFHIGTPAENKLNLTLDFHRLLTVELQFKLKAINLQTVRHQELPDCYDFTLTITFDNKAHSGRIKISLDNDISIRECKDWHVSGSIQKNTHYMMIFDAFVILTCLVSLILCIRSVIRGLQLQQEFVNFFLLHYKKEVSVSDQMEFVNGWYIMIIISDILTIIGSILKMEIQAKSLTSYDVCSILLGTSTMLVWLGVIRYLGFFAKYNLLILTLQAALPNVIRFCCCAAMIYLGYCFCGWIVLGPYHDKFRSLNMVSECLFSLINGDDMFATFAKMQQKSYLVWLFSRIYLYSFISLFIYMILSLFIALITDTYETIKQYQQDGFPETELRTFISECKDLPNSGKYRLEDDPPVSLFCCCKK
Experimental: as §1, §2, §3, §4, §5, §7, §6

Sequence of human TRPML1 (Q9GZU1 whole entry L15A/L16A/L577A/L578A, form open): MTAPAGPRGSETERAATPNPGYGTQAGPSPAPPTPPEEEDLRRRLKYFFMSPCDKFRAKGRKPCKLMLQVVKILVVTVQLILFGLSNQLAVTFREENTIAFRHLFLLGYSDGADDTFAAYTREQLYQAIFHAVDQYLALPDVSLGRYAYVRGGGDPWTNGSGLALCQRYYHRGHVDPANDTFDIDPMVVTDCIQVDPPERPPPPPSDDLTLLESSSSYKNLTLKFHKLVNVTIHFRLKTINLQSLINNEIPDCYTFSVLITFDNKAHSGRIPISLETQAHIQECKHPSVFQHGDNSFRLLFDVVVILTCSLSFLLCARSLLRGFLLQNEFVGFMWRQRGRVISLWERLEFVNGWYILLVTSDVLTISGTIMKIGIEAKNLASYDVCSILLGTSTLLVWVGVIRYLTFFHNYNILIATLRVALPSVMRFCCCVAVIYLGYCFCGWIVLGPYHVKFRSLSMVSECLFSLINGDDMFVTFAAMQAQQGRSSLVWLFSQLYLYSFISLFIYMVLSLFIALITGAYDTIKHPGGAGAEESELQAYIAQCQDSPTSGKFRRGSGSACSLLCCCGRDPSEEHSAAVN

## CC1CC(C)(C)N(C(=O)CN2C(=O)c3ccccc3C2=O)c2ccccc21 (stereo not shown) [ML-SA1]
TRPMLs
  concentration needed to effectively activate TRPMLs: ~ 10 μM

## C[C@H]1CN(C(=O)c2ccccc2)CCN1c1ncnc2c1c(-c1ccccc1F)cn2-c1cc(C#N)ccn1 [Compound 122, (S)-2-(4-(4-benzoyl-2-methylpiperazin-1-yl)-5-(2-fluorophenyl)-7H-pyrrolo[2,3-d]pyrimidin-7-yl)isonicotinonitrile]
Human TRPML1
  EC50: < 100 nM
Human TRPML2
  EC50: 500 to 2000 nM
Human TRPML3
  EC50: 100 to 500 nM

## C[C@@H]1CN(c2ncnc3c2c(-c2ccccc2)cn3-c2cc(C#N)ccn2)[C@@H](C)CN1C(=O)c1ccccc1 [Compound 116, 2-(4-((2S,5R)-4-benzoyl-2,5-dimethylpiperazin-1-yl)-5-phenyl-7H-pyrrolo[2,3-d]pyrimidin-7-yl)isonicotinonitrile]
Human TRPML1
  EC50: < 100 nM
Human TRPML2
  EC50: 500 to 2000 nM
Human TRPML3
  EC50: 100 to 500 nM

## C[C@@H]1CN(c2ncnc3c2c(-c2ccccc2F)cn3-c2cc(C#N)ccn2)[C@@H](C)CN1C(=O)c1ccccc1N(C)C [Compound 121, 2-(4-((2S,5R)-4-(2-(dimethylamino)benzoyl)-2,5-dimethylpiperazin-1-yl)-5-(2-fluorophenyl)-7H-pyrrolo[2,3-d]pyrimidin-7-yl)isonicotinonitrile]
Human TRPML1
  EC50: < 100 nM
Human TRPML2
  EC50: 100 to 500 nM
Human TRPML3
  EC50: < 100 nM

## C[C@@H]1CN(c2ncnc3c2c(N2CCC2)cn3-c2cc(C#N)ccn2)CCN1C(=O)c1ccccc1 [Compound 101, (R)-2-(5-(azetidin-1-yl)-4-(4-benzoyl-3-methylpiperazin-1-yl)-7H-pyrrolo[2,3-d]pyrimidin-7-yl)isonicotinonitrile]
Human TRPML1
  EC50: < 100 nM
Human TRPML2
  EC50: 100 to 500 nM
Human TRPML3
  EC50: < 100 nM

## C[C@@H]1CN(c2ncnc3c2c(C2CC2)cn3-c2cccc(F)c2)[C@@H](C)CN1C(=O)c1ccccc1 [Compound 105, ((2R,5S)-4-(5-cyclopropyl-7-(3-fluorophenyl)-7H-pyrrolo[2,3-d]pyrimidin-4-yl)-2,5-dimethylpiperazin-1-yl)(phenyl)methanone]
Human TRPML1
  EC50: < 100 nM
Human TRPML2
  EC50: > 2000 nM
Human TRPML3
  EC50: 500 to 2000 nM

## Cc1ccccc1C(=O)N1C[C@H](C)N(c2ncnc3c2c(N2CCC2)cn3-c2cc(C#N)ccn2)C[C@H]1C [Compound 112, 2-(5-(azetidin-1-yl)-4-((2S,5R)-2,5-dimethyl-4-(2-methylbenzoyl)piperazin-1-yl)-7H-pyrrolo[2,3-d]pyrimidin-7-yl)isonicotinonitrile]
Human TRPML1
  EC50: 100 to 500 nM
Human TRPML2
  EC50: 500 to 2000 nM
Human TRPML3
  EC50: 100 to 500 nM

From patent US20260226067A1, “MODULATORS OF TRPML, THEIR COMPOSITIONS AND METHODS OF USE” (Caraway Therapuetics, Inc., priority 2023, published 2026)
